The text below walks through data of ChEMBL document CHEMBL5126557, “Design, synthesis, and bio-evaluation of novel triterpenoid derivatives as anti-HIV-1 compounds” (Bioorg Med Chem Lett, 2022).

Data set [1] has as its system Human immunodeficiency virus 1. The data set can be described thus: Antiviral activity against HIV-1 NL4-3(X4) infected in human TZM-bl cells assessed as reduction in viral replication. It counts as functional, organism-based. The conditions noted are these: Human immunodeficiency virus 1, NL4-3(X4).
The test system of data set [2] is Human immunodeficiency virus 1. The data set can be described thus: Antiviral activity against HIV-1 89.6 infected in human TZM-bl cells assessed as reduction in viral replication. It counts as functional, organism-based. The settings on record: Human immunodeficiency virus 1, 89.6, TZM-bl.
The nature of data set [3]: Cytotoxicity against human TZM-bl cells assessed as reduction in cell viability by CellTitre-Glo assay. It counts as toxicity, cell-based.
Data set [4] deals with Human immunodeficiency virus 1. Description: Antiviral activity against HIV-1 YU2 […] infected in human TZM-bl cells assessed as reduction in viral replication. Format: functional, organism-based. The conditions noted are these: Human immunodeficiency virus 1, YU2[…].
Data set [5] in a line: Selectivity index, ratio of CC50 for human TZM-bl cells to IC50 for IC50 for antiviral activity against HIV-1 89.6 infected in human TZM-bl cells. Format: toxicity, cell-based. The settings on record: read-out: Ratio CC50/IC50.
Data set [6] deals with Human immunodeficiency virus 1. The data set can be described thus: Synergistic antiviral activity against HIV-1 89.6 infected in human TZM-bl cells assessed as antibody dose reduction index at 45:1 compound and 2G12 antibody ratio. Format: functional.
Data set [7] relates to Human immunodeficiency virus 1. Description: Synergistic antiviral activity against HIV-1 89.6 infected in human TZM-bl cells assessed as antibody dose reduction index at 45:1 compound and 4E10 antibody ratio. Format: functional.
For data set [8], the system named is Human immunodeficiency virus 1. Description: Synergistic antiviral activity against HIV-1 89.6 infected in human TZM-bl cells assessed as compound dose reduction index at 45:1 compound and 447-52D antibody ratio. Format: functional.
In data set [9] the test system is Human immunodeficiency virus 1. The data set can be described thus: Synergistic antiviral activity against HIV-1 89.6 infected in human TZM-bl cells assessed as combination index at 450:1 compound and b12 antibody ratio. Format: functional.
Data set [10] relates to Human immunodeficiency virus 1. Description: Synergistic antiviral activity against HIV-1 89.6 infected in human TZM-bl cells assessed as antibody dose reduction index at 45:1 compound and 447-52D antibody ratio. Format: functional.
The subject of data set [11] is Human immunodeficiency virus 1. Description: Synergistic antiviral activity against HIV-1 89.6 infected in human TZM-bl cells assessed as combination index at 45:1 compound and 4E10 antibody ratio. Format: functional.
Data set [12] has as its system Human immunodeficiency virus 1. The data set can be described thus: Synergistic antiviral activity against HIV-1 89.6 infected in human TZM-bl cells assessed as combination index at 45:1 compound and KD-247 antibody ratio. It counts as functional.
Data set [13] concerns Human immunodeficiency virus 1. The data set can be described thus: Synergistic antiviral activity against HIV-1 89.6 infected in human TZM-bl cells assessed as compound dose reduction index at 45:1 compound and KD-247 antibody ratio. Format: functional.
Data set [14] relates to Human immunodeficiency virus 1. Description: Synergistic antiviral activity against HIV-1 89.6 infected in human TZM-bl cells assessed as combination index at 45:1 compound and 2G12 antibody ratio. Format: functional.
Data set [15] relates to Human immunodeficiency virus 1. The data set can be described thus: Synergistic antiviral activity against HIV-1 89.6 infected in human TZM-bl cells assessed as antibody dose reduction index at 45:1 compound and 2F5 antibody ratio. Format: functional.
Data set [16] has as its system Human immunodeficiency virus 1. Description: Synergistic antiviral activity against HIV-1 89.6 infected in human TZM-bl cells assessed as compound dose reduction index at 45:1 compound and 2F5 antibody ratio. Format: functional.
Data set [17] relates to Human immunodeficiency virus 1. Description: Synergistic antiviral activity against HIV-1 89.6 infected in human TZM-bl cells assessed as antibody dose reduction index at 45:1 compound and KD-247 antibody ratio. Format: functional.
For data set [18], the system named is Human immunodeficiency virus 1. The data set can be described thus: Synergistic antiviral activity against HIV-1 89.6 infected in human TZM-bl cells assessed as combination index at 45:1 compound and 447-52D antibody ratio. Format: functional.
The test system of data set [19] is Human immunodeficiency virus 1. Description: Synergistic antiviral activity against HIV-1 89.6 infected in human TZM-bl cells assessed as antibody dose reduction index at 450:1 compound and b12 antibody ratio. Format: functional.
The subject of data set [20] is Human immunodeficiency virus 1. The data set can be described thus: Synergistic antiviral activity against HIV-1 89.6 infected in human TZM-bl cells assessed as combination index at 45:1 compound and 2F5 antibody ratio. It counts as functional.
In data set [21] the test system is Human immunodeficiency virus 1. Description: Synergistic antiviral activity against HIV-1 89.6 infected in human TZM-bl cells assessed as compound dose reduction index at 45:1 compound and 4E10 antibody ratio. Format: functional.
Data set [22] relates to Human immunodeficiency virus 1. Description: Synergistic antiviral activity against HIV-1 89.6 infected in human TZM-bl cells assessed as compound dose reduction index at 45:1 compound and 2G12 antibody ratio. Format: functional.
Data set [23] deals with Human immunodeficiency virus 1. The data set can be described thus: Synergistic antiviral activity against HIV-1 89.6 infected in human TZM-bl cells assessed as compound dose reduction index at 450:1 compound and b12 antibody ratio. Format: functional.

One may read the IC50 as the midpoint of a concentration-inhibition curve. By CC50 is commonly meant the concentration giving 50% cytotoxicity. For the compound `CC(C)C[C@H](NC(=O)CCCCCCCNC(=O)[C@@]1(C)CC[C@]2(C)CC[C@]3(C)C(=CC(=O)[C@@H]4[C@@]5(C)CC[C@H](O)C(C)(C)[C@@H]5CC[C@]43C)[C@@H]2C1)[C@H](O)CC(=O)O`, the IC50 in data set [1], in data set [2] and in [4] was over 100 µM each time. In addition, the CC50 in [3] is over 300 µM.

Regarding `CC(C)C[C@H](NC(=O)CCCCCCCNC(=O)[C@]12CCC(C)(C)C[C@H]1[C@H]1C(=O)C[C@@H]3[C@@]4(C)CC[C@H](O)C(C)(C)[C@@H]4CC[C@@]3(C)[C@]1(C)CC2)[C@@H](O)CC(=O)O`, the IC50 in data set [1] was 0.5 µM; in [2], 0.39 µM; in [4], 16 µM. Also, the selectivity ratio in [5] came out at 328. Moreover, the CC50 in [3] is 128 µM.

For `CC(C)C[C@H](NC(=O)CCCCCCCNC(=O)[C@]12CC[C@@H](C)[C@H](C)[C@H]1C1=CC[C@@H]3[C@@]4(C)CC[C@H](O)C(C)(C)[C@@H]4CC[C@@]3(C)[C@]1(C)CC2)[C@@H](O)CC(=O)O`, the IC50 in [1] turned out to be 3.7 µM; in [2], 3.5 µM; in data set [4], 43 µM. In addition, in [5], the selectivity ratio is 27. In [3], the CC50 came out at 95 µM.

In the case of `CC(C)C[C@H](NC(=O)CCCCCCCNC(=O)[C@]12CCC(C)(C)C[C@H]1C1=CC[C@@H]3[C@@]4(C)CC[C@H](O)C(C)(C)[C@@H]4CC[C@@]3(C)[C@]1(C)CC2)[C@H](O)CC(=O)O`, the 50% inhibitory concentration (IC50) worked out at 3.2 µM in data set [1], 1 µM in [2] and 42 µM in data set [4]. Moreover, in data set [5], the selectivity ratio turned out to be 26. The cytotoxic concentration (CC50) in [3] stood at 26 µM.

With `C=C(C)[C@@H]1CC[C@]2(C(=O)NCCCCCCCC(=O)N[C@@H](CC(C)C)[C@@H](O)CC(=O)O)CC[C@]3(C)[C@H](CC[C@@H]4[C@@]5(C)CC[C@H](O)C(C)(C)[C@@H]5CC[C@]43C)[C@@H]12`, the IC50 in data set [1] was found to be 0.27 µM; in data set [2], 0.17 µM; in data set [4], 80 µM. The selectivity ratio in data set [5] is 100. In addition, in data set [3], the cytotoxic concentration (CC50) came out at 17 µM.

As for `C=C(C)[C@@H]1CC[C@]2(C(=O)NCCCCCCCC(=O)N[C@@H](CC(C)C)[C@H](O)CC(=O)O)CC[C@]3(C)[C@H](CC[C@@H]4[C@@]5(C)CC[C@H](O)C(C)(C)[C@@H]5CC[C@]43C)[C@@H]12`, the half-inhibitory concentration (IC50) came out at 0.32 µM in data set [1], 0.2 µM in data set [2] and 5.8 µM in data set [4]. In [5], the selectivity ratio is 45. Further, the CC50 in [3] stood at 8.9 µM.

In the case of `CC(C)C[C@H](NC(=O)CCCCCCCNC(=O)[C@]12CC[C@@H](C)[C@H](C)[C@H]1C1=CC[C@@H]3[C@@]4(C)CC[C@H](O)C(C)(C)[C@@H]4CC[C@@]3(C)[C@]1(C)CC2)[C@H](O)CC(=O)O`, the results for the IC50 in data set [1], in data set [2] and in data set [4] were 3.9 µM, 1.1 µM and 40 µM, respectively. The selectivity ratio in [5] came to 65. The CC50 in [3] is 71 µM.

Consider `CC(C)C[C@H](NC(=O)CCCCCCCNC(=O)[C@@]1(C)CC[C@]2(C)CC[C@]3(C)C(=CC(=O)[C@@H]4[C@@]5(C)CC[C@H](O)C(C)(C)[C@@H]5CC[C@]43C)[C@@H]2C1)[C@@H](O)CC(=O)O`, for which the IC50 in data set [1], in [2] and in data set [4] was over 100 µM in each case. The cytotoxic concentration (CC50) in [3] was over 300 µM.

As to `CC(C)C[C@H](NC(=O)CCCCCCCNC(=O)[C@]12CCC(C)(C)C[C@H]1C1=CC[C@@H]3[C@@]4(C)CC[C@H](O)C(C)(C)[C@@H]4CC[C@@]3(C)[C@]1(C)CC2)[C@@H](O)CC(=O)O`, the Activity_index in [6] is given as 3.1; in [7], 5.5; in data set [8], 3.8; in data set [10], 3.9; in data set [13] it was 3.3; in data set [15] it was 2.7. Also, the Activity_index in data set [16] is 4.3; in data set [17], 2.9; in [19] it was 3.6; in data set [21] it was 2.9; in [22], 4.9; in [23], 3.2. Further, the IC50 came out at 1.7 µM in [1], 0.79 µM in [2] and 25 µM in data set [4]. Also, the CI was determined as 0.68 in [9]; 0.59 in [11]; 0.75 in data set [12]; 0.59 in data set [14]; 0.59 in data set [18]; 0.69 in data set [20]. In data set [5], the selectivity ratio worked out at 99. Further, the CC50 in data set [3] came out at 78 µM.
